Experimental findings from ChEMBL document CHEMBL1201862, “PubChem BioAssay data set” (2004) are described below.

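How tested: cells in 96-well plates exposed to compound for 48 hours at five concentrations. The concentration for 50% growth inhibition is given as GI50.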 Calls of active or inactive are those of the source. Cut-off read from the data, not from the text of the source: active = GI50 up to about 1.1 µM and inactive = higher. Bounds are passed on as bounds.

Common to all, as to test: growth of human tumour cells (NCI), 48 h
In assay [1] the test system is MDA-MB-231.
Assay [2] deals with HCT-116.
Assay [3] has as its system HCC 2998.
The test system of assay [4] is PC-3.
In assay [5] the test system is KM12.
Assay [6] deals with RXF 393.
Assay [7] has as its system UACC-62.
Assay [8] concerns T47D.
The test system of assay [9] is NCI-H23.
Assay [10] deals with SW-620.
Assay [11] deals with SK-MEL-2.
Assay [12] concerns SK-MEL-28.
Assay [13] deals with NCI-H460.
Assay [14] relates to EKVX.
Assay [15] relates to SK-OV-3.
Assay [16] concerns NCI-H522.
The subject of assay [17] is HOP-92.
The test system of assay [18] is SR.
In assay [19] the test system is HL-60.
The test system of assay [20] is TK-10.

As for `C(#C[C@@]12CCC[C@@H]1N(Cc1ccccc1)CO2)c1ccc2c(c1)OCO2`, the GI50 in assay [1], in assay [2], in [3], in assay [4], in [5] and in assay [6] was > 100 µM (inactive) each time. Besides, the GI50 in [7], in assay [8], in [9], in assay [10], in assay [11] and in [12] was > 100 µM (inactive) each time. The GI50 in assay [13], in [14] and in [15] was > 100 µM (inactive) in each case.

Turning to `COc1ccc(/C(=N\Nc2ccccn2)c2ccccn2)cc1`, the GI50 is < 0.0193 µM (active) in assay [1]; < 0.01 µM (active) in assay [2]; 2.93 µM (inactive) in assay [3]; 0.0306 µM (active) in [4]; 0.16 µM (active) in assay [5]; < 0.01 µM (active) in [16]. Besides, the GI50 is 2.59 µM (inactive) in assay [6]; 0.104 µM (active) in assay [7]; 0.0272 µM (active) in [9]; < 0.01 µM (active) in [10]; 3.37 µM (inactive) in [11]; 0.336 µM (active) in [12]. Besides, the GI50 in assay [17] was < 0.045 µM (active); in [18] it was 0.0547 µM (active); in [13], < 0.0287 µM (active); in [14] it was < 0.01 µM (active); in [15], 0.107 µM (active); in assay [19], < 0.01 µM (active).

As for `COc1ccc2c3c([nH]c2c1)CCN(Cc1ccccc1)C3`, the GI50 was 28.9 µM (inactive) in [1]; 24 µM (inactive) in [2]; 19.1 µM (inactive) in assay [3]; 22 µM (inactive) in assay [5]; 18.3 µM (inactive) in assay [6]; 31.8 µM (inactive) in assay [7]. In addition, the GI50 in assay [8] is 19.4 µM (inactive); in assay [9], 42.3 µM (inactive); in assay [20], 24.4 µM (inactive); in [10] it was 23.2 µM (inactive); in assay [12], 18.8 µM (inactive); in assay [17], 4.35 µM (inactive). The GI50 in assay [18] is 17.4 µM (inactive); in assay [13] it was 17 µM (inactive); in [14] it was 42.8 µM (inactive); in assay [15] it was > 100 µM (inactive); in assay [19] it was 17.5 µM (inactive).

Consider `N#CC1(C#N)C2CCCCC23OC(=N)C1(C#N)C(c1ccccc1)O3` (stereo not drawn), for which the GI50 in [1] was 16.4 µM (inactive); in [2], 17 µM (inactive); in assay [3] it was 14.2 µM (inactive); in assay [4], 21.4 µM (inactive); in assay [5] it was 8.49 µM (inactive); in [6], 31.8 µM (inactive). Moreover, the GI50 in [7] was 17.9 µM (inactive); in assay [8], 17.5 µM (inactive); in [9], 30.5 µM (inactive); in assay [20], 16.6 µM (inactive); in [10], 14.8 µM (inactive); in assay [11] it was 20.2 µM (inactive). Besides, the GI50 in assay [12] was > 10 µM (inactive); in assay [17], 15.5 µM (inactive); in assay [13], 19 µM (inactive); in assay [14], 23.5 µM (inactive); in assay [15], > 100 µM (inactive).

In the case of `COC1CC(C)C(OC)c2cc(O)cc(c2O)NC(=O)/C(C)=C/C=C\C(C)C(OC(N)=O)/C(C)=C\C(C)C1OC` (stereo not drawn), the GI50 in [2] was 0.297 µM (active); in assay [3] it was 0.951 µM (active); in assay [4], 0.228 µM (active); in assay [5], 0.255 µM (active); in [16] it was 0.0863 µM (active); in [6], 0.316 µM (active). Moreover, the GI50 in [7] is 0.274 µM (active); in assay [8], 0.266 µM (active); in assay [20], 6.97 µM (inactive); in [10], 0.082 µM (active); in assay [11], 1.69 µM (inactive); in assay [12], 0.336 µM (active). In addition, the GI50 in assay [17] was 0.347 µM (active); in assay [18], 0.0396 µM (active); in assay [13], 0.203 µM (active); in assay [14] it was 10.5 µM (inactive); in [15], 0.292 µM (active).

As to `O=[N+]([O-])c1ccc(O)c(/C=N/CC2CCCN3CCCCC23)c1` (stereo not drawn), the GI50 is 88.1 µM (inactive) in assay [1]; 44.2 µM (inactive) in [2]; 22.5 µM (inactive) in [3]; 57.1 µM (inactive) in [4]; 37.7 µM (inactive) in assay [5]; 26 µM (inactive) in assay [16]. Besides, the GI50 in [6] is 23 µM (inactive); in [7] it was 27.9 µM (inactive); in [9], 46.7 µM (inactive); in [20] it was > 100 µM (inactive); in assay [13], 45.8 µM (inactive); in [14] it was 31.4 µM (inactive). In addition, the GI50 in assay [15] is 29.6 µM (inactive).

Regarding `C[C@@H](NC(C#N)c1ccco1)c1ccccc1` (stereo partly drawn), the GI50 in assay [2] is > 100 µM (inactive); in assay [3], 32.7 µM (inactive); in [4], > 100 µM (inactive); in assay [5] it was > 100 µM (inactive); in assay [6], > 100 µM (inactive); in assay [7], > 100 µM (inactive). In addition, the GI50 in [8] was > 100 µM (inactive); in [9], > 100 µM (inactive); in assay [20] it was > 100 µM (inactive); in assay [10], > 100 µM (inactive); in assay [12], > 100 µM (inactive); in assay [17], 30.4 µM (inactive). In addition, the GI50 in [18], in assay [13], in [14], in assay [15] and in assay [19] was > 100 µM (inactive) throughout.

For the compound `COc1cc([N+](=O)[O-])c(S(=O)(=O)O)cc1-n1nc(C(=O)Nc2ccccc2)n[n+]1-c1cc(S(=O)(=O)[O-])c([N+](=O)[O-])cc1OC`, the GI50 was > 100 µM (inactive) in assay [2]; > 100 µM (inactive) in assay [4]; > 100 µM (inactive) in assay [5]; > 100 µM (inactive) in assay [16]; 42.2 µM (inactive) in [7]; > 100 µM (inactive) in assay [9]. Moreover, the GI50 in [20], in assay [10], in assay [11], in assay [12], in assay [17] and in [18] was > 100 µM (inactive) throughout. Also, the GI50 in assay [13], in assay [14], in assay [15] and in [19] was > 100 µM (inactive) throughout.

For the compound `CC(=O)C1C(=O)C(=O)N(c2ccc([N+](=O)[O-])cc2[N+](=O)[O-])C1=O` (stereo not drawn), the GI50 in [1], in [2], in [3], in assay [4], in assay [5] and in [16] was > 100 µM (inactive) in each case. For the same compound, the GI50 in [6] was 1.96 µM (inactive); in [7] it was > 100 µM (inactive); in [9] it was > 100 µM (inactive); in [20], 80.4 µM (inactive); in [10], > 100 µM (inactive); in assay [11], > 100 µM (inactive). Moreover, the GI50 in [12] is > 100 µM (inactive); in [17], > 100 µM (inactive); in assay [13], > 100 µM (inactive); in assay [14] it was 56.5 µM (inactive); in [15], 83.6 µM (inactive); in assay [19], > 100 µM (inactive).

As for `Nc1ccc2c(c1)Cc1ccccc1-2`, the GI50 was > 100 µM (inactive) in assay [1]; 81.5 µM (inactive) in assay [2]; > 100 µM (inactive) in [3]; 64.9 µM (inactive) in assay [4]; 41.5 µM (inactive) in assay [5]; 48.1 µM (inactive) in assay [6]. Besides, the GI50 is 59.4 µM (inactive) in [7]; 47.6 µM (inactive) in [9]; > 100 µM (inactive) in assay [20]; > 100 µM (inactive) in assay [10]; 99.8 µM (inactive) in assay [11]; > 100 µM (inactive) in [12]. Further, the GI50 in assay [17] was 28.9 µM (inactive); in [18] it was 52.5 µM (inactive); in assay [13], 69.8 µM (inactive); in assay [14], 37.1 µM (inactive); in assay [15], > 100 µM (inactive); in assay [19], 36.6 µM (inactive).

Turning to `C#C[C@]1(O)CC[C@H]2[C@@H]3CCc4cc(O)ccc4[C@H]3CC[C@@]21C` [ETHINYL ESTRADIOL], the GI50 is 23 µM (inactive) in assay [2]; 18.3 µM (inactive) in assay [3]; 13.6 µM (inactive) in assay [5]; 10.9 µM (inactive) in assay [16]; 29 µM (inactive) in [6]; 34.3 µM (inactive) in [7]. Further, the GI50 was 23.7 µM (inactive) in assay [9]; 43.9 µM (inactive) in assay [20]; 16.1 µM (inactive) in [10]; 24.5 µM (inactive) in assay [11]; 65.2 µM (inactive) in assay [12]; 22.9 µM (inactive) in [17]. In addition, the GI50 is 16.7 µM (inactive) in [18]; 21.7 µM (inactive) in [13]; 11.7 µM (inactive) in assay [14]; 24.4 µM (inactive) in assay [15]; 21.7 µM (inactive) in [19].

In the case of `COC[C@H]1OC(=O)c2coc3c2[C@@]1(C)C1=C(C3=O)[C@@H]2CCC(=O)[C@@]2(C)C[C@H]1OC(C)=O` [WORTMANNIN], the GI50 in [2] was 13.4 µM (inactive); in [3], 2.16 µM (inactive); in assay [4], 0.598 µM (active); in assay [5], 11.5 µM (inactive); in [16], 13.8 µM (inactive); in assay [7] it was 1.31 µM (inactive). For the same compound, the GI50 in assay [8] is 0.637 µM (active); in assay [9] it was 35.7 µM (inactive); in assay [20] it was 11.9 µM (inactive); in assay [10], 17.7 µM (inactive); in assay [11] it was 2.21 µM (inactive); in assay [12], 7.45 µM (inactive). The GI50 in assay [18] is 1.84 µM (inactive); in assay [13], 8.95 µM (inactive); in [14], 9.66 µM (inactive).
